The values that follow come from patent US7241611B2, “Methods for synthesis of holo-photoactive yellow protein” (Universiteit Gent, priority 2002, dated 2007).

Where two headings read alike, the source gives them in different places.

Assay [1] concerns tyrosine ammonia lyase (TAL) from Rhodobacter capsulatus. It is filed as biochemical. To be noted: for pH optimum of activity (TAL with L-tyrosine, PAL with L-phenylalanine): pH 6. On the procedure: Both activities were followed by the following spectrophotometric assay (adapted from Rösler et al. (1997)): PAL activity was assayed by following cinnamic acid formation at 280 nm using a double beam spectrophotometer (Uvikon, Kontron, Herts, United Kingdom) in 10 mM Tris buffer at 35° C. The pH optimum was determined between the pH values 6-10. The substrate concentrations were varied between 5 mM and 0.2 mM. TAL activity was assayed by monitoring p-hydroxycinnamic acid formation at 310 nm and 35° C. The substrate concentration was varied between 2 mM and 0.01 mM. All reactions were performed in a total volume of 1 ml.
FIG. 3 presents Lineweaver-Burk plots for the two substrates at their respective pH optimum.
Since PAL and TAL sequences show significant homology to histidine ammonia lyases (HAL), which are common enzymes in bacteria, we also tested L-histidine as a substrate for the recombinant enzyme.

Assay [2] addresses T1, PAL/TAL enzyme from the monocot Zea mays (Zea mays, UniProt Q8VXG7). In words: Kinetic parameters of the PAL/TAL enzyme from maize (Rösler et al., 1997). It is filed as biochemical. To be noted: pH 8.7.
For assay [3], the target named is T1, PAL/TAL enzyme from the monocot Zea mays. The conditions noted are these: pH 8.7; cited from earlier work.
The target in assay [4] is PAL-1 isozyme from parsley (Petroselinum crispum) (Petroselinum crispum, UniProt P24481). The conditions noted are these: cited from earlier work.
Assay [5] is described as follows: Laser flash photolysis, photocycle kinetics of PYP. Set-up: species or system Halorhodospira halophila. The conditions noted are these: flash 440 nm, universal buffer pH 8.0. On the procedure:
The laser flash photolysis and spectroscopy apparatus and the methods used for data analysis were as previously described (Meyer et al., 1987). The PYP sample was dialysed against a universal buffer (20 mM MES, 20 mM HEPES, and 20 mM glycine, pH 8.0) prior to the experiment. We used 1 ml samples, with an absorbance at 445 nm of approximately 0.2, for the kinetic measurements. By flashing the PYP sample with laser light of 440 nm, we could determine the kinetics of the light-induced absorbance changes. FIGS. 9a and 9b show the I1→I2 bleach reaction and the I2→P recovery of our in vivo formed holo-PYP. It can be seen that after a flash with 440 nm light, the PYP went through a normal photocycle. […] The rate of recovery was 7.2 s^−1, compared to 6.3 s^−1 for wild-type and chemically reconstituted PYP (Meyer et al., 1987; Genick et al., 1997). […] Since this is different from the 3.4 ms^−1 reported by Genick et al. (1997), we repeated the experiment under our conditions with native PYP and found the rate to be 1.3 ms^−1. This is approximately the same as what we measured with our recombinant PYP.

The conditions of assay [6]: reported by Genick et al. (1997); cited from earlier work.

T1 sequence (Q8VXG7 whole entry): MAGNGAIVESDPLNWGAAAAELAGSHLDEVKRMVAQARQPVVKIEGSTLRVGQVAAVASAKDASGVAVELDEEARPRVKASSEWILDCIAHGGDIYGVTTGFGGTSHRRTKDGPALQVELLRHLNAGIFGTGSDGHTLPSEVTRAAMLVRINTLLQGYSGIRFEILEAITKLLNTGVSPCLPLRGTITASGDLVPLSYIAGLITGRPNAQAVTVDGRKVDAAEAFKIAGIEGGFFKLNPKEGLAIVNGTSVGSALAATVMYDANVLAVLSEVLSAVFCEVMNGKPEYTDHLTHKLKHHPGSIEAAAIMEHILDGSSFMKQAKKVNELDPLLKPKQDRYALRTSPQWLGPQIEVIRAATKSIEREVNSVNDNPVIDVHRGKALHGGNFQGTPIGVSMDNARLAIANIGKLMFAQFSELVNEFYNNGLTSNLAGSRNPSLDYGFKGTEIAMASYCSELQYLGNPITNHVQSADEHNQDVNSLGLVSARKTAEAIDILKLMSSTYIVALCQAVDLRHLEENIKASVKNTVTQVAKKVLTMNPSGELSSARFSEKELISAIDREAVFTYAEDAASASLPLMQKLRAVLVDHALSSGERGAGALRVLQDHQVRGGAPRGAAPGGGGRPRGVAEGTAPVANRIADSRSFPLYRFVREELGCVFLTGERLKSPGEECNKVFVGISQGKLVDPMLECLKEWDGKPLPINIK

As for `N[C@@H](Cc1ccccc1)C(=O)O` [L-Phenylalanine, L-phenylalanine], in assay [1], the “fold higher Km for L-Phe than for L-Tyr” value is 80 fold and the “pH optimum of activity (TAL with L-tyrosine, PAL with L-phenylalanine)” value is reported as 9.4. The “fold higher Km value for L-Phe compared to L-Tyr” value in assay [2] is on record as 15 fold. In assay [3], the Km was 270 µM and the kcat was 10 s⁻¹. In assay [4], the Km was 17.2 µM and the catalytic constant (kcat) was 22 s⁻¹.
Regarding `N[C@@H](Cc1ccc(O)cc1)C(=O)O` [L-Tyrosine, L-tyrosine], the “pH optimum of activity (TAL with L-tyrosine, PAL with L-phenylalanine)” value in assay [1] was determined as 8.5. For the same molecule, in assay [3], the Km is 19 µM and the kcat is 0.9 s⁻¹. For the same molecule, in assay [4], the turnover number (kcat) was 0.3 s⁻¹.
For `N[C@@H](Cc1c[nH]cn1)C(=O)O` [L-histidine], the “activity as substrate (histidine ammonia lyase activity)” value in assay [1] (spectrophotometric assay of Schwede et al. (1999)) is recorded as “could not detect any activity”.
With `N[C@@H](Cc1c[nH]c2ccccc12)C(=O)O` [L-tryptophan], the activity as substrate result in assay [1] (up to a 5 mM concentration) is given as “no activity was detected”.

B1: recombinant PYP: holo-photoactive yellow protein formed in vivo in Escherichia coli with TAL, pCL and pyp genes (protein, UniProt P16113 1-125, looked up)
Photoactive yellow protein: MEHVAFGSEDIENTLAKMDDGQLDGLAFGAIQLDGDGNILQYNAAEGDITGRDPKQVIGKNFFKDVAPCTDSPEFYGKFKEGVASGNLNTMFEYTFDYQMTPTKVKVHMKKALSGDSYWVFVKRV
modifications: recombinant holo form, expressed in E. coli
As for B1, in assay [5], the “rate constant of the bleach (I1→I2)” value was determined as 1.6 ms^−1.

B2: wild-type PYP: wild-type Halorhodospira halophila photoactive yellow protein (protein, UniProt P16113 1-125, looked up)
Photoactive yellow protein: B1 Photoactive yellow protein
modifications: holo form with chromophore
As to B2, in assay [5], the “rate constant of the bleach (I1→I2)” value worked out at 1.3 ms^−1.

B3: chemically reconstituted PYP: recombinant apo-PYP with the chromophore chemically attached (Genick et al., 1997) (protein, UniProt P16113 1-125, looked up)
Photoactive yellow protein: B1 Photoactive yellow protein
modifications: chemically attached chromophore
For B3, in assay [6], the “rate constant of the bleach (I1→I2)” value is 3.4 ms^−1.

By Km is commonly meant the concentration of substrate that gives half-maximal velocity. Broadly, the kcat is the maximal rate divided by the concentration of active sites.
